Experiments:
[1] = target: T1, GST-VCB protein complex (Homo sapiens, UniProt P40337); assay: BODIPY FL VH032 (5)-mediated pVHL TR-FRET binding assay (competition); conditions: for IC50 / Ki: 4 nM BODIPY FL VH032 (5), 2 nM Tb-anti-GST; for IC50 / Ki / pVHL inhibitory activity in the TR-FRET binding assay: 90-min incubation; for Ki: read-out: Ki, pVHL TR-FRET binding assay (Cheng-Prusoff); for pVHL inhibitory activity in the TR-FRET binding assay: 2.1 pM to 30 μM
[2] = target: T1, GST-VCB protein complex; assay: BODIPY FL VH032 (5)-mediated pVHL FP binding assay (competition); conditions: for pVHL inhibitory activity in the FP assay: 2.1 pM to 30 μM
Procedure: It was freshly prepared every time before an experiment. […] The FP signals were determined at the 90-min incubation time. […] The FP signals or the FP signal fold changes were plotted with the GraphPad Prism software. […] The FP Ki values were used to compare the relative binding affinities of the test ligands to pVHL.

[3] = target: VCB (Homo sapiens, UniProt P40337); conditions: 10 nM FAM-HIF-1α, 15 nM VCB; read-out: Kd, reported FAM-HIF-1α peptide (19-mer)-based FP assay; cited from earlier work
[4] = target: T1, GST-VCB protein complex; assay: Determination of BODIPY FL VH032 (5) binding Kd to GST-VCB protein complex in a FP binding assay; conditions: VH298 30 μM, 1000 nM GST-VCB, 10 nM probe
Procedure: For the BODIPY FL VH032 (5)-mediated pVHL FP binding assay, the general TR-FRET assay protocol was followed except that the […] antibody was not added and the PHERAstar FS plate reader (BMG Labtech; Durham, NC) was equipped with a FP optic module (Excitation: 485 nm, Emission: 520 nm) to read FP assay signals.
The pVHL FP assay buffer has a formula of 25 mM HEPES pH 7.4, 0.01% Tween-20, 0.5 mM DTT, 0.01% BSA. It was freshly prepared every time before an experiment.
BODIPY FL VH032 (5, 10 nM) was incubated with dilutions of GST-VCB (1-to-2 dilutions, a concentration range of 0.03 nM to 1 μM) along with the DMSO group or VH298 (2, 30 μM) group. In addition, BODIPY FL VH032 (5, 10 nM) was incubated with DMSO only, but without GST-VCB. The FP signals were determined with the PHERAstar FS plate reader. The representative data collected at 90-min incubation time was plotted with the GraphPad Prism software using a one-site total binding equation to derive curves for each group. The binding affinity Kd values were derived from the DMSO with GST-VCB.

[5] = target: T1, GST-VCB protein complex; assay: Determination of BODIPY FL VH032 (5) binding Kd to GST-VCB protein complex in a TR-FRET binding assay; conditions: for Kd: 2 nM GST-VCB
Text: For the BODIPY FL VH032 (5)-mediated pVHL TR-FRET binding assay, a reported TR-FRET assay protocol (Lin, et al. (2014) Development of BODIPY FL vindoline as a novel and high-affinity pregnane X receptor fluorescent probe. Bioconjug Chem 25, 1664-1677) was followed except that an Echo 555 Acoustic Liquid Handler (Labcyte Inc., San Jose, CA) was used to dispense chemicals and BODIPY FL VH032 (5), GST-VCB and Tb-anti-GST antibody were used.
The pVHL TR-FRET binding assay buffer has a formula of 50 mM Tris pH 7.5, 0.1% Triton X-100, 0.01% bovine serum albumin, 1 mM DTT. It was freshly prepared every time before an experiment.
Dilutions of BODIPY FL VH032 (5, 1-to-2 dilutions, a concentration range of 0.06 nM to 500 nM) was incubated with 2 nM Tb-anti-GST along with, group 1: 2 nM GST-VCB+DMSO; group 2: 2 nM GST-VCB+VH298 (2, 30 μM); or group 3: without GST-VCB+DMSO. The TR-FRET signals were monitored every 30 min from 30 min to 300 min with a PHERAstar FS plate reader equipped with a TR-FRET optic module (excitation: 340 nm; emission 1: 520 nm; emission 2: 490 nm). The TR-FRET signals were fitted into GraphPad Prism 8.4.3 software (GraphPad Software; San Diego, CA) using a one-site total binding equation to derive curves for each group.

## Cc1ncsc1-c1ccc(CNC(=O)[C@@H]2C[C@@H](O)CN2C(=O)[C@@H](NC(=O)OC(C)(C)C)C(C)(C)C)cc1 [BOC-VH032 (8)]
[1]; 2 nM GST-VCB
  IC50: 4.9 µM
  Ki: 2.1 µM
[2]; 10 nM BODIPY FL VH032 (5), 100 nM GST-VCB, 90-min incubation
  IC50: 16.3 µM
[2]; 10 nM BODIPY FL VH032 (5), 100 nM GST-VCB, 90-min incubation, read-out: Ki, pVHL FP assay (Nikolovska-Coleska method)
  Ki: 8 µM
[3]
  Kd: 6.5 µM

## Cc1ncsc1-c1ccc(CNC(=O)[C@@H]2C[C@@H](O)CN2C(=O)[C@@H](NC(=O)C2(C#N)CC2)C(C)(C)C)cc1 [VH298 (2), (2S,4R)-1-((S)-2-(1-Cyanocyclopropanecarboxamido)-3,3-dimethylbutanoyl)-4-hydroxy-N-(4-(4-methylthiazol-5-yl)benzyl)pyrrolidine-2-carboxamide]
[1]; VH298 30 μM, 2 nM GST-VCB, 4 nM probe, all incubation times 30 to 300 min
  TR-FRET signal of the positive control group: 278.7±4.5 RTU
[4]
  FP signal, GST-VCB-mediated non-specific interaction: 43.0 mP
[2]; VH298 30 μM, 10 nM probe, 100 nM GST-VCB, 90 min
  FP signal of the positive control: 14.5 mP

## NCCCCNC(=O)COc1cccc2c1C(=O)N(C1CCC(=O)NC1=O)C2=O (stereo not drawn)
[1]
  pVHL inhibitory activity in the TR-FRET binding assay: inactive
[2]; 90-min incubation
  pVHL inhibitory activity in the FP assay: did not show pVHL inhibitory activity

## Cc1ncsc1-c1ccc([C@H](C)NC(=O)[C@@H]2C[C@@H](O)CN2C(=O)[C@@H](N)C(C)(C)C)cc1 [Me-VH032 amine (7)]
[1]; 2 nM GST-VCB
  IC50: 7.9 µM
  Ki: 3.4 µM
[2]; FP assay, not observed in TR-FRET
  concentration at which the compound disturbed the FP assay detection (assay interference): ≥ 370 nM

## CC1=CC(C)=[N+]2C1=Cc1ccc(CCC(=O)NCCOCCOCCOCCOCC(=O)NC(C(=O)N3CC(O)CC3C(=O)NCc3ccc(-c4scnc4C)cc3)C(C)(C)C)n1[B-]2(F)F [BODIPY FL VH032 (5), (2S,4R)-1-4S)-2-(tert-butyl)-21-(5,5-difluoro-7,9-Dimethyl-5H-5Λ^4,6Λ^4-dipyrrolo[1,2-c:2′,1′-f][1,3,2]diazaborinin-3-yl)-4,19-dioxo-6,9,12,15-tetraoxa-3,18-diazahenicosanoyl)-4-hydroxy-N-(4-O-methylthiazol-5-yl)benzyl)pyrrolidine-2-carboxamide]
[5]; 90-min incubation, 2 nM Tb-anti-GST
  Kd: 0.00301 µM
[5]; 120-min incubation
  Kd: 0.00304 µM
[5]; 150-min incubation
  Kd: 0.00301 µM
[5]; 180-min incubation
  Kd: 0.00298 µM
[5]; 240-min incubation
  Kd: 0.00298 µM
[5]; 300-min incubation
  Kd: 0.00304 µM
[5]; at 3.9 nM BODIPY FL VH032 (5), 90 min
  highest TR-FRET signal fold change, 2 nM GST-VCB+DMSO / without GST-VCB+DMSO: 16.2 fold
[5]; at 7.8 nM BODIPY FL VH032 (5), 90 min
  highest TR-FRET signal fold change, 2 nM GST-VCB+DMSO / 2 nM GST-VCB+VH-298 (2): 15.1 fold

## Cc1sc2c(c1C)C(c1ccc(Cl)cc1)=N[C@@H](CC(=O)NCCCCNC(=O)COc1cccc3c1C(=O)N(C1CCC(=O)NC1=O)C3=O)c1nnc(C)n1-2 (stereo partly drawn) [dBET1 (12)]
[1]
  pVHL inhibitory activity in the TR-FRET binding assay: inactive
[2]; 90-min incubation
  pVHL inhibitory activity in the FP assay: did not show pVHL inhibitory activity

## Cc1ncsc1-c1ccc(CNC(=O)[C@@H]2C[C@@H](O)CN2C(=O)[C@@H](NC(=O)COCCOCCOCCOCCN)C(C)(C)C)cc1 [VH032-PEG4-amine (10)]
[1]; 2 nM GST-VCB
  IC50: 0.0059 µM

Source: US20240002458A1, “NOVEL VHL SMALL MOLECULE PROBES” (St. Jude Children's Research Hospital, priority 2020, published 2024)
